According to patent US20150125915A1, “Method for Producing Lactic Acid” (Kao Corporation, priority 2012, published 2015):

Assays:
[1] = tested on: Rhizopus oryzae JCM14625 strain (=NBRC 5384); assay: LDH activity evaluation-1: mycelia prepared from spores in surfactant-supplemented PDB medium, LDH activity of fungus body extract; assay type: cell-based; conditions: for LDH activity (relative value): 0.5% (w/v) surfactant in PDB medium at spore germination, LDH activity in the absence of the surfactant = 100; for LDH activity compared with control fungus bodies (in words): 0.5% (w/v) surfactant at spore germination, versus medium non-supplemented with the surfactant
Description: A loopful of a cryopreserved spore suspension sample (−80° C.) of a Rhizopus oryzae JCM14625 strain (=NBRC 5384) obtained from a culture collection Riken BioResource Center (BRC) was inoculated to a PDA medium (Difco Potato Dextrose Agar, manufactured by Becton, Dickinson and Company) and then statically cultured at 30° C. for from 7 to 10 days. After visual confirmation of hyphal growth and blackening at the ends of hyphae associated with sporulation, from 30 to 40 mL of saline was added thereto. Spores, together with hyphae, were collected into a 50-mL centrifugal tube with a lid (manufactured by Greiner bio-one) using a platinum loop and then vigorously mixed in the tube. The spore suspension thus mixed was filtered through 3GP100 cylindrical funnel-shaped glass filter (manufactured by Shibata Scientific Technology Ltd.). The resulting filtrate was used as a spore solution. The number of spores in the spore solution was measured using a hemocytometer (D=1/50 mm· 1/400 mm^2) after appropriate dilution with saline.
80 mL of a PDB medium non-supplemented or supplemented with 0.5% (w/v) (final concentration) of each surfactant described below was applied to a 200-mL baffled Erlenmeyer flask (manufactured by Asahi Glass Co., Ltd.). The Rhizopus oryzae spore suspension prepared in Production Example 1 was inoculated thereto at a dose of 1×10^3 spores/mL of the medium and then cultured at 27° C. for 3 days with stirring at 170 rpm. Since mycelia would remain on the filter, the cultures were filtered through a stainless sieve of 250 μm in mesh size (manufactured by AS ONE Corp.) sterilized in advance to recover fungus bodies onto the filter.
From3.0 to 4.0 g (wet weight) of the recovered fungus bodies was inoculated to 100 mL of an inorganic culture medium (composition: 10% glucose, 0.1% ammonium sulfate, 0.06% potassium dihydrogen phosphate, 0.025% magnesium sulfate heptahydrate, 0.009% zinc sulfate heptahydrate, and 5.0% calcium carbonate; all the concentrations mean % (w/v)) applied to a 500-mL Erlenmeyer flask, and then cultured at 27° C. for approximately 40 hours with stirring at 220 rpm. Subsequently, the cultures thus obtained by culture in the inorganic culture medium were filtered using a stainless screen filter holder (manufactured by EMD Millipore) sterilized in advance to recover fungus bodies onto the filter. On this filter holder, the fungus bodies were further washed with 100 mL of saline. The saline used in washing was removed by suction filtration. The obtained fungus bodies were used in the following LDH activity evaluation and evaluation of the ability to fermentatively produce lactic acid.
6.0 g of the wet fungus bodies of the genus Rhizopus obtained in Production Example 3 was inoculated to 40 mL of an inorganic culture medium for lactic acid production evaluation (composition: 8.0% glucose, 0.1% ammonium sulfate, 0.06% potassium dihydrogen phosphate, 0.025% magnesium sulfate heptahydrate, 0.009% zinc sulfate heptahydrate, and 5.0% calcium carbonate; all the concentrations mean % (w/v)) applied to a 200-mL Erlenmeyer flask, and then cultured at 35° C. with stirring at 170 rpm. After 4.5-hour culture of the fungus bodies of the genus Rhizopus with stirring, the fungus bodies were filtered using a stainless screen filter holder (manufactured by EMD Millipore) sterilized in advance to recover fungus bodies onto the filter. On this filter holder, the fungus bodies were further washed with 100 mL of saline. The saline used in washing was removed by suction filtration. 0.3 g of the obtained fungus bodies was recovered into a 3-mL disruption tube (manufactured by Yasui Kikai Corp.). Metal cone for 3 mL (manufactured by Yasui Kikai Corp.) was added to the tube, which was then capped and then frozen in liquid nitrogen. The frozen 3-mL disruption tube was applied to Multi-Beads Shocker (manufactured by Yasui Kikai Corp.). The fungus bodies were disrupted at 1700 rpm for 10 seconds.

[2] = Evaluation of foaming property by the inversion stirring method; assay type: physicochemical; conditions: for Volume of foam (relative value): 0.5% (w/v) surfactant in PDB medium, 30 seconds after stirring, foam in the absence of the surfactant = 100; for Volume of foam relative to the volume of foam in the absence of the surfactant (in words): 0.5% (w/v) in PDB medium
Description: Each surfactant used in Test Example 2 was evaluated for its foaming properties by the inversion stirring method. 100 mL of a PDB medium non-supplemented or supplemented with 0.5% (w/v) (final concentration) of a surfactant was added to a graduated cylindrical container of 50 mm in diameter and then inversion-stirred for 300 seconds using a flat propeller while the propeller was inverted every 6 seconds at 1000 rpm. 30 seconds after the completion of stirring, the volume of foam in the medium was measured.

[3] = tested on: Rhizopus oryzae JCM14625 strain (=NBRC 5384); assay: Evaluation of ability to produce lactic acid-1 (production rate of lactic acid); assay type: cell-based; conditions: 0.5% (w/v) surfactant in PDB medium at spore germination; rate in the absence of the surfactant = 100
Description: Specifically, the mycelia of a fungus of the genus Rhizopus were prepared by the method of Production Example 2 using the surfactant and then grown by the method of Production Example 3. 6.0 g of the obtained wet fungus bodies of the genus Rhizopus was inoculated to 40 mL of an inorganic culture medium for lactic acid production evaluation (composition: 8.0% glucose, 0.1% ammonium sulfate, 0.06% potassium dihydrogen phosphate, 0.025% magnesium sulfate heptahydrate, 0.009% zinc sulfate heptahydrate, and 5.0% calcium carbonate; all the concentrations mean % (w/v)) applied to a 200-mL Erlenmeyer flask, and then cultured at 35° C. with stirring at 170 rpm. The supernatant of the culture medium was recovered every 2 hours from 30 minutes after the fungus body inoculation. Glucose and lactic acid were quantified by the procedures described later in Reference Example 1. A relative value of the production rate of lactic acid was determined on the basis of the calculation method described in Reference Example 2.
Glucose and lactic acid were quantified using an HPLC apparatus LaChrom Elite (manufactured by Hitachi High-Technologies Corp.). The analytical column used was a carbohydrate/organic acid analysis column HPX-87H (7.8 mm I.D.×30 cm, manufactured by Bio-Rad Laboratories, Inc.) connected with a guard column Cation H (4.6 mm I.D.×3.0 cm, manufactured by Bio-Rad Laboratories, Inc.). Elution was performed under conditions involving 10 mM sulfuric acid as an eluent, a flow rate of 0.85 mL/min, and a column temperature of 50° C. Glucose and lactic acid were detected using a differential refractive index detector (RI detector) and a UV detector (detection wavelength: 210 nm), respectively. The standard samples used were glucose (distributor code: 049-31165, manufactured by Wako Pure Chemical Industries Ltd.), and lithium L-lactate (product number: L2250, manufactured by Sigma-Aldrich Inc.). Quantification was performed on the basis of concentration calibration curves prepared using these standard samples.
The supernatant sample of each culture medium to be subjected to HPLC analysis was appropriately diluted in advance with 37 mM sulfuric acid and then applied to DISMIC-13cp (0.20 μm cellulose acetate membrane, manufactured by […] Group) or MULTI SCREEN MNHV45 (0.45 μm Durapore membrane, manufactured by EMD Millipore) to remove insoluble matter.
The concentration of lactic acid (unit: g of lactic acid/L of medium) in the supernatant sample of each culture medium was measured according to Reference Example 1 and divided by a time (unit: hr) required for change in lactic acid concentration to calculate the production rate of lactic acid per unit time (unit: g of lactic acid/L/hr). In addition, a relative value to the production rate of lactic acid under control conditions in each Production Example was determined.

| Substance | LDH activity (relative value) [1] | Volume of foam (relative value) [2] | Production rate of lactic acid (relative value) [3] | Volume of foam relative to the volume of foam in the absence of the surfactant (in words) [2] | LDH activity compared with control fungus bodies (in words) [1] |
| --- | --- | --- | --- | --- | --- |
| Polyoxyethylene (3) lauryl ether | 170 relative value | 250 relative value | 203 relative value | – | – |
| Polyoxyethylene (4) lauryl ether | 214 relative value | 350 relative value | 171 relative value | – | – |
| Polyoxyethylene (4) sorbitan monolaurate | 140 relative value | 150 relative value | 142 relative value | twice or less | – |
| Polyoxyethylene (5) lauryl ether | 112 relative value | – | – | – | – |
| Polyoxyethylene (6) lauryl ether | 93 relative value | – | – | – | slightly lower LDH activity |
| Polyoxyethylene (10) octyl phenyl ether | 178 relative value | 2000 relative value | 254 relative value | – | higher LDH activity |
| Polyoxyethylene (20) sorbitan monolaurate | 148 relative value | 1350 relative value | 137 relative value | – | – |
| Sodium deoxycholate | 109 relative value | – | – | – | higher LDH activity |
| Sorbitan monooleate | 135 relative value | 100 relative value | 113 relative value | twice or less | higher LDH activity |
